Tests used:
HeLa [1] = assay: Anticancer activity against Homo sapiens (human) HeLa cells assessed as cell viability at 50 uM after 24 hr by MTT assay (reference value: 100 +/-4.13%); type: functional; conditions: read-out: Activity
MDA-MB-231 [2] = assay: Anticancer activity against Homo sapiens (human) estrogen-independent MDA-MB-231 cells assessed as cell viability at 50 uM after 48 hr by MTT assay (reference value: 100 +/-3.71%); type: functional; conditions: MDA-MB-231, 48 h, read-out: Activity
Mus musculus [3] = species on record: Mus musculus; assay: Acute toxicity against Mus musculus Swiss albino (mouse) assessed as morbidity after 48 hr; type: organism-based; conditions: in vivo
Mus musculus [4] = species on record: Mus musculus; assay: Acute toxicity against Mus musculus Swiss albino (mouse) assessed as mortality after 48 hr; type: organism-based; conditions: in vivo
HL-60 [5] = assay: Anticancer activity against Homo sapiens (human) HL60 cells assessed as cell viability at 50 uM after 48 hr by MTT assay (reference value: 100 +/-8.41%); type: functional; conditions: HL-60, 48 h, read-out: Activity
HL-60 [6] = assay: Anticancer activity against Homo sapiens (human) HL60 cells assessed as cell viability at 50 uM after 24 hr by MTT assay (reference value: 100 +/-3.55%); type: functional; conditions: HL-60, 24 h, read-out: Activity
MCF7 [7] = assay: Anticancer activity against Homo sapiens (human) MCF7 cells assessed as cell viability at 50 uM after 48 hr by MTT assay (100 +/-5.08%); type: functional; conditions: MCF7, 48 h, read-out: Activity
MCF7 [8] = assay: Anticancer activity against Homo sapiens (human) MCF7 cells assessed as cell viability at 50 uM after 24 hr by MTT assay (reference value: 100 +/-2.74%); type: functional; conditions: MCF7, 24 h, read-out: Activity
Raji [9] = assay: Anticancer activity against Homo sapiens (human) Raji cells assessed as cell viability at 50 uM after 48 hr by MTT assay (reference value: 100 +/-4.26%); type: functional; conditions: read-out: Activity
Raji [10] = assay: Anticancer activity against Homo sapiens (human) Raji cells assessed as cell viability at 50 uM after 24 hr by MTT assay (reference value: 100 +/-5.02%); type: functional; conditions: read-out: Activity
HeLa [11] = assay: Anticancer activity against Homo sapiens (human) HeLa cells assessed as cell viability at 50 uM after 48 hr by MTT assay (reference value: 100 +/-3.8%); type: functional; conditions: read-out: Activity
MDA-MB-231 [12] = assay: Anticancer activity against Homo sapiens (human) estrogen-independent MDA-MB-231 cells assessed as cell viability at 50 uM after 24 hr by MTT assay (reference value: 100 +/-7.08%); type: functional; conditions: MDA-MB-231, 24 h, read-out: Activity
Mus musculus [13] = assay: Anti-inflammatory activity in carrageenan-induced Mus musculus Swiss albino (mouse) paw edema model assessed as paw swelling at 100 mg/kg, sc administered 30 min prior to carrageenan injection measured after 270 min (rvb = 75.0 +/-3.0 x10'-2 mm); type: functional; conditions: route subcutaneous
Mus musculus [14] = assay: Anti-inflammatory activity in carrageenan-induced Mus musculus Swiss albino (mouse) paw edema model assessed as inhibition of paw edema at 100 mg/kg, sc administered 30 min prior to carrageenan injection measured after 360 min; type: functional; conditions: route subcutaneous
Mus musculus [15] = assay: Anti-inflammatory activity in carrageenan-induced Mus musculus Swiss albino (mouse) paw edema model assessed as inhibition of paw edema at 100 mg/kg, sc administered 30 min prior to carrageenan injection measured after 270 min; type: functional; conditions: route subcutaneous
Mus musculus [16] = assay: Anti-inflammatory activity in carrageenan-induced Mus musculus Swiss albino (mouse) paw edema model assessed as inhibition of paw edema at 100 mg/kg, sc administered 30 min prior to carrageenan injection measured after 180 min; type: functional; conditions: route subcutaneous
Mus musculus [17] = assay: Anti-inflammatory activity in carrageenan-induced Mus musculus Swiss albino (mouse) paw edema model assessed as inhibition of paw edema at 100 mg/kg, sc administered 30 min prior to carrageenan injection measured after 90 min; type: functional; conditions: route subcutaneous
Mus musculus [18] = assay: Anti-inflammatory activity in carrageenan-induced Mus musculus Swiss albino (mouse) paw edema model assessed as paw swelling at 100 mg/kg, sc administered 30 min prior to carrageenan injection measured after 360 min (reference value: 77.0 +/-3.0 x10'-2 mm); type: functional; conditions: route subcutaneous
Mus musculus [19] = assay: Anti-inflammatory activity in carrageenan-induced Mus musculus Swiss albino (mouse) paw edema model assessed as paw swelling at 100 mg/kg, sc administered 30 min prior to carrageenan injection measured after 180 min (reference value: 51.0 +/-3.0 x10'-2 mm); type: functional; conditions: route subcutaneous
Mus musculus [20] = assay: Anti-inflammatory activity in carrageenan-induced Mus musculus Swiss albino (mouse) paw edema model assessed as paw swelling at 100 mg/kg, sc administered 30 min prior to carrageenan injection measured after 90 min (reference value: 38.0 +/-2.0 x10'-2 mm); type: functional; conditions: route subcutaneous
Mus musculus [21] = assay: Analgesic activity in Mus musculus Swiss albino (mouse) assessed as inhibition of p-benzoquinone-induced abdominal writhing at 100 mg/kg, sc administered 30 min prior to PBQ injection measured after 5 min for 15 min; type: functional, Abdomen; parameters: scale not given: the % may be the effect or the level left; conditions: route subcutaneous

Row | Structure (SMILES) | viability at 50 µM (HeLa [1]) [%] | viability at 50 µM (MDA-MB-231 [2]) [%] | Activity (Mus musculus [3]) | Activity (Mus musculus [4]) | viability at 50 µM (HL-60 [5]) [%] | viability at 50 µM (HL-60 [6]) [%] | viability at 50 µM (MCF7 [7]) [%] | viability at 50 µM (MCF7 [8]) [%] | viability at 50 µM (Raji [9]) [%] | viability at 50 µM (Raji [10]) [%] | viability at 50 µM (HeLa [11]) [%] | viability at 50 µM (MDA-MB-231 [12]) [%] | Activity (Mus musculus [13]) [×10⁻² mm] | inhibition in vivo at 100 mg/kg (Mus musculus [14]) [%] | inhibition in vivo at 100 mg/kg (Mus musculus [15]) [%] | inhibition in vivo at 100 mg/kg (Mus musculus [16]) [%] | Activity (Mus musculus [18]) [×10⁻² mm] | Activity (Mus musculus [19]) [×10⁻² mm] | Activity (Mus musculus [20]) [×10⁻² mm] | Activity (Mus musculus [21]) [%] | further results
1 | Cc1ccc(-c2cc(C(=O)NCc3cccnc3)n(Cc3ccccc3)n2)cc1 | 74.9 | 43.1 | Non-toxic | Non-toxic | 41.9 | 31.7 | 100 | 105 | 93.4 | 86.4 | 82.6 | 65.1 | 57 | 25.3 | 24.4 | 16.5 | 57 | 43 | 36 |  | inhibition in vivo at 100 mg/kg (Mus musculus [17]): 3.7%
2 | Cc1ccc(-c2cc(C(=O)Oc3ccc(C(C)(C)C)cc3)n(Cc3ccccc3)n2)cc1 | 83.2 | 62.9 | Non-toxic | Non-toxic | 112 | 120 | 94.9 | 93.2 | 103 | 94.9 | 81.4 | 119 | 38 | 62 | 50 | 35 | 29 | 33 | 40 | 10.9 | 
3 | Cc1ccc(-c2cc(C(=O)Oc3ccc(C(C)C)cc3)n(Cc3ccccc3)n2)cc1 | 87.2 | 50.2 | Non-toxic | Non-toxic | 126 | 115 | 90.5 | 80.3 | 94.2 | 105 | 69.7 | 71.9 | 53 | 31.5 | 29 | 24 | 53 | 39 | 38.3 | 33 | 
4 | CCCCCCCOc1ccc(OC(=O)c2cc(-c3ccc(C)cc3)nn2Cc2ccccc2)cc1 | 109 | 63.2 | Non-toxic | Non-toxic | 108 | 118 | 97.6 | 100 | 84.3 | 76.3 | 85.3 | 115 | 68 |  | 10 | 9 | 80 | 47 | 42.5 |  | 
5 | Cc1ccc(-c2cc(C(=O)Oc3ccc(Oc4ccc(C(F)(F)F)cc4)cc3)n(Cc3ccccc3)n2)cc1 | 89.1 | 50.3 | Non-toxic | Non-toxic | 86.3 | 114 | 107 | 63.6 | 121 | 111 | 77.4 | 75.5 | 58 | 14.1 | 22.2 | 17 | 66 | 43 | 40 | 56.9 | 
6 | CCOC(=O)C1CCN(C(=O)c2cc(-c3ccc(C)cc3)n(Cc3ccccc3)n2)CC1 | 66.4 | 71.8 | Non-toxic | Non-toxic | 78.8 | 88.2 | 94.5 | 77.8 | 41.6 | 56.5 | 47.1 | 121 | 32 | 59.8 | 57.8 | 13.9 | 31 | 44 | 40 | 83.2 | 
7 | Cc1ccc(-c2cc(C(=O)N3CCN(Cc4ccc(C(C)C)cc4)CC3)n(Cc3ccccc3)n2)cc1 | 84.8 | 51 | Non-toxic | Non-toxic | 104 | 128 | 66.6 | 94.4 | 109 | 101 | 60.6 | 74 | 55 | 30.4 | 26.7 | 4.1 | 53 | 49 | 44.2 |  | 
8 | CC(=O)Oc1ccccc1C(=O)O [ASPIRIN] |  |  |  |  |  |  |  |  |  |  |  |  |  |  |  |  |  |  |  | 68.9 | 

Reference: ChEMBL document CHEMBL3045001, “Synthesis and evaluation of analgesic, anti-inflammatory, and anticancer activities of new pyrazole-3(5)-carboxylic acid derivatives” (Med Chem Res, 2013)
